Data reported in paper PMC4604475 (Scientific Reports, 2015).

Assays:
[1] = Hydrolysis kinetics in aqueous PBS 0.1 M, pH 6.8, 37 °C (intestinal conditions); assay type: physicochemical; details: for half-life at 5 μM: 0.1 M PBS buffer, 5 μM compound; for 10^2 * kII, pseudo first-order rate constant, disubstituted to monosubstituted / 10^2 * kIII, pseudo first-order rate constant, trisubstituted to disubstituted: value ± standard error of fit
From the text: (§1) There are two possible isomeric disubstituted intermediates and, likewise, two monosubstituted intermediates. By HPLC-UV and HPLC-MS analyses in most cases we were able to detect and separate all of them. However, to simplify the kinetic analysis of the data we considered each pair of isomeric intermediates, resulting from the first and second hydrolysis steps, as a single species, i.e. the two disubstituted and the two monosubstituted intermediates were handled as species II and I, respectively (Fig. 3). Fitting of the experimental data was then performed considering consecutive pseudo first order reactions and using a set of equations analogous to those described by Kozerski et al.[55]
The stability of all new compounds was tested in aqueous media imitating gastric (0.1 N HCl, NormaFix) and intestinal (0.1 M PBS buffer, pH 6.8) conditions. A 5 μM solution of the compound was prepared from a 5 mM stock solution in DMSO, and incubated at 37 °C for 24 hours; samples withdrawn at different times were analysed by HPLC-UV. Hydrolysis products were identified by HPLC/ESI-MS analysis of selected samples. Non-linear curve fitting was performed using Origin 8.0 data analysis software, using the equations described in[55][61].

[2] = Stability (hydrolysis kinetics) in rat whole blood; assay type: in vitro ADME; details: 37 °C; for kIII, pseudo first-order rate constant, trisubstituted to disubstituted: value ± standard error of fit; for half-life at 5 μM: whole blood (heparinised), 5 μM compound
From the text: as §1
Rats were anesthetised and blood was withdrawn from the jugular vein, and transferred into tubes containing heparin. Blood samples (1 mL) were spiked with 5 μM compound (dilution from a 5 mM stock solution in DMSO), and incubated at 37 °C for 4 hours (the maximum period allowed by blood stability). Aliquots were taken after 10 min, 30 min, 1 h, 2 h and 4 h and treated as described below (blood sample treatment and analysis). Cleared blood samples were finally subjected to HPLC-UV analysis.
(§2) Before starting the treatment, 4,4′-dihydroxybiphenyl was added as internal standard to a carefully measured blood volume (25 μM final concentration). 0.1 vol of 0.6 M TEA (pH 8.0) and 4 vol of MeOH were then added to the blood samples, which were then sonicated (2 min) and centrifuged (12,000 g, 7 min, 4 °C). The supernatant was finally collected and stored at −20 °C. Before analysis, MeOH was evaporated off at room temperature using a Univapo 150H (UniEquip) vacuum concentrator centrifuge, and up to 40 μL of ACN were added to precipitate residual proteins. After centrifugation (12,000 g, 5 min, 4 °C), cleared samples were directly subjected to HPLC-UV analysis. Metabolites and hydrolysis products were identified by comparison of chromatographic retention time with true samples or by HPLC/ESI-MS analysis.

[3] = Blood pharmacokinetics after oral (intragastric) administration to rats; assay type: in vivo; details: rat, oral 88 μmol/kg
Protocol: Derivatives 2–5 were then tested for their in vivo absorption and metabolism by performing pharmacokinetic studies after oral administration to rats. Each compound was administered as a single intragastric bolus, in an equimolar dose/kg body weight (88 μmol/kg). Blood samples were taken at different time points over a 24 h period, treated and analyzed as described in the Materials and Methods section. Each experiment was replicated at least 3 times.
as §2
Internal standard recovery from the treatment used to extract resveratrol-AA derivatives was 91.8 ± 10.7%. The recovery of 3, expressed as ratio to the recovery of internal standard, was 0.633 ± 0.088. […] Knowledge/assumption of these ratios allowed us to determine the unknown amount of analyte in a blood sample by measuring the recovery of internal standard.
Since sample treatment includes an evaporation/concentration step, LOD and LOQ were determined relatively to the analytical part of the method (HPLC/UV analysis).
Derivatives 2–5 were administered to overnight-fasted male Wistar rats from the facility of the Department of Biomedical Sciences, University of Padova, as a single intragastric dose (88 μmol/Kg, dissolved in 250 μl DMSO). Blood samples were obtained by the tail bleeding technique: before drug administration, rats were anesthetised with isoflurane and the tip of the tail was cut off; blood samples (80–100 μL each) were then taken from the tail tip at different time points after drug administration. Blood was collected in heparinised tubes, kept in ice and treated as described above within 10 min.

[4] = oral administration of an equimolar amount of resveratrol itself; cited from earlier work

Structure (SMILES) | half-life at 5 μM [1] | 10^2 * kII, pseudo first-order rate constant, disubstituted to monosubstituted [1] | 10^2 * kIII, pseudo first-order rate constant, trisubstituted to disubstituted [1] | kIII, pseudo first-order rate constant, trisubstituted to disubstituted [2] | half-life at 5 μM [2] | level of disubstituted hydrolysis products (II) in blood [3] | sulfated or glucuronidated species in the bloodstream [3] | concentration of prodrug in blood ([3]; about one hour after administration, remained around this level for several hours) | appearance in blood of resveratrol, products of partial hydrolysis (II and I) or any metabolites [3] | time of peak blood concentration of resveratrol [4]
CC(C)CC(NC(=O)Oc1ccc(/C=C/c2cc(OC(=O)NC(CC(C)C)C(=O)O)cc(OC(=O)NC(CC(C)C)C(=O)O)c2)cc1)C(=O)O (centres unmarked) [Derivative 2, (E)-2,2′-((((5-(4-(((1-carboxy-3-methylbutyl)carbamoyl)oxy)styryl)-1,3-phenylene)bis(oxy))bis(carbonyl))bis(azanediyl))bis(4-methylpentanoic acid)] | > 24 h | 0.9 ± 0.2 h^−1 | 1.98 ± 0.03 h^−1 | 0.57 ± 0.06 h⁻¹ | 1 h | – | – | – | – | –
CCC(C)C(NC(=O)Oc1ccc(/C=C/c2cc(OC(=O)NC(C(=O)O)C(C)CC)cc(OC(=O)NC(C(=O)O)C(C)CC)c2)cc1)C(=O)O (centres unmarked) [Derivative 3, (E)-2,2′-((((5-(4-(((1-carboxy-2-methylbutyl)carbamoyl)oxy)styryl)-1,3-phenylene)bis(oxy))bis(carbonyl))bis(azanediyl))bis(3-methylpentanoic acid)] | > 24 h | 0.4 ± 0.4 h^−1 | 2.21 ± 0.02 h^−1 | 0.63 ± 0.04 h⁻¹ | 1 h | about as high as that of their precursor | neither sulfated nor glucuronidated species appeared in the bloodstream | higher than 0.5 μM | – | –
CC(O)C(NC(=O)Oc1ccc(/C=C/c2cc(OC(=O)NC(C(=O)O)C(C)O)cc(OC(=O)NC(C(=O)O)C(C)O)c2)cc1)C(=O)O (centres unmarked) [Derivative 4, (E)-2,2′-((((5-(4-(((1-carboxy-2-hydroxypropyl)carbamoyl)oxy)styryl)-1,3-phenylene)bis(oxy))bis(carbonyl))bis(azanediyl))bis(3-hydroxybutanoic acid)] | 15 h | 1.4 ± 0.1 h^−1 | 5.30 ± 0.08 h^−1 | 3.9 ± 0.2 h⁻¹ | 0.17 h | – | – | – | did not result in the appearance in blood samples of detectable amounts | –
O=C(NC(Cc1ccccc1)C(=O)O)Oc1ccc(/C=C/c2cc(OC(=O)NC(Cc3ccccc3)C(=O)O)cc(OC(=O)NC(Cc3ccccc3)C(=O)O)c2)cc1 (centres unmarked) [Derivative 5, (E)-2,2′-((((5-(4-(((1-carboxy-2-phenylethyl)carbamoyl)oxy)styryl)-1,3-phenylene)bis(oxy))bis(carbonyl))bis(azanediyl))bis(3-phenylpropanoic acid)] | 17 h | 1.36 ± 0.04 h^−1 | 4.25 ± 0.02 h^−1 | 1.86 ± 0.06 h⁻¹ | 0.3 h | – | – | – | did not result in the appearance in blood samples of detectable amounts | –
Oc1ccc(/C=C/c2cc(O)cc(O)c2)cc1 [resveratrol, 3,5, 4′-trihydroxy-trans-stilbene] | – | – | – | – | – | – | – | – | – | about 10 minutes
